The source of these data is PubChem BioAssay (NCI).

Common to all, as to experiment: NCI-60 cell line screen, 48 h
Test [1] deals with NCI-H460 lung.
Test [2] relates to MDA-MB-435.
Test [3] has as its system RXF 393 renal.
Test [4] deals with CAKI-1 renal.

Several values for one entry are separate records, joined by “and”; a condition that tells them apart may be missing. Equal entries are not always repeated.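 Exposure lasted 48 hours, with cells grown in 96-well plates and compounds tested at five concentrations. GI50 marks 50% less growth. At the TGI there is no net growth.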 Where a SMILES comes first, the peptide text is derived from it. The star is where a group is joined. Boc = CC(C)(C)OC(=O)*

As for `O=c1oc2ccccc2cc1-c1nc2ccccc2c(=O)[nH]1`, the TGI in test [1], in test [2], in test [3] and in test [4] was > 100 µM throughout.
As for `CC(C)(C)c1cc(C(C)(C)C)c(P=C(Cl)Cl)c(C(C)(C)C)c1` (centres undefined), the TGI in test [1], in test [2] and in test [4] was > 100 µM throughout.
Turning to `CCOC(=O)/C(=C\NC[C@@H](C)O)c1nc2ccccc2[nH]1`, the TGI in test [1], in test [2], in test [3] and in test [4] was > 100 µM throughout.
For the molecule `CC1=NN(c2cccc(Cl)c2)C(=N/c2nc3ccccc3s2)/C1=C\c1ccccc1O`, the TGI was 84.4 µM in test [1], > 100 µM in test [2], > 100 µM in test [3] and > 100 µM in test [4].
Consider `CC(SC(=S)N1CCCC1)C(=O)Nc1nnc(-c2ccc(Cl)cc2)o1` (centres undefined), for which the TGI in test [1], in test [2] and in test [3] was > 100 µM each time.
`N#Cc1c(Cl)cccc1Oc1ccc(S(=O)(=O)/N=C(\NO)Nc2ccc(Cl)cc2)cc1`: the TGI in test [1] was determined as 36.4 µM; in test [2], 31.7 µM; in test [3], 32.2 µM; in test [4], 29.2 µM.
The corresponding values for `COC(=O)/C=C/COCC1C2CCC(=O)C21` (centres undefined) are > 100 µM, > 100 µM, > 100 µM and 51.5 µM.
For `O=C1c2scc(-c3ccc(F)cc3)c2-n2cccc21`, in that order: > 100 µM, 31.4 µM, > 100 µM and > 100 µM.
For `Cc1nc2ccc(S(=O)(=O)Nc3ccccn3)cc2c(=O)n1NS(=O)(=O)c1ccccn1`, in that order: > 100 µM, > 100 µM, > 100 µM and > 100 µM.
In the case of `COc1ccccc1/[N+]([O-])=C/c1ccccc1OC(=S)S`, the TGI in test [1] is > 100 µM; in test [2], 36 µM; in test [3] it was > 100 µM; in test [4], > 100 µM.
On to `O=C1CSC2(CC(/C=C/c3cccc(Br)c3)=NN2c2cccc(S(=O)(=O)O)c2)N1c1nc2ccccc2s1` (centres undefined), for which the TGI in test [1], in test [2], in test [3] and in test [4] was > 100 µM in each case.
For `CCOc1cc(NC(C)=O)ccc1C(=O)NN1C(=O)C(Cl)C1c1ccc(O)c(OC)c1` (centres undefined), the TGI in test [1] worked out at 33.1 µM; in test [2], 29.8 µM; in test [3], 29.2 µM; in test [4] it was 31.4 µM.
On to `CCOC(=O)NC(OCCN(C)C)(C(F)(F)F)C(F)(F)F`, for which the TGI in test [1], in test [2], in test [3] and in test [4] was > 100 µM each time.
Consider `COC(=O)CC[N+]1([O-])CC1`, for which the TGI in test [1], in test [2] and in test [3] was > 100 µM each time.
For the molecule `C=C[C@@]1(C)CC(=O)[C@]2(O)[C@@]3(C)[C@@H](OC(C)=O)CCC(C)(C)[C@@H]3[C@H](O)[C@H](OC(C)=O)[C@@]2(C)O1`, the TGI in test [1], in test [2] and in test [4] was > 100 µM throughout.
In the case of `CN(C(=O)C12C3C4C1C1C2C3C41C(=O)O)C(C)(C)C` (centres undefined), the TGI in test [1], in test [2], in test [3] and in test [4] was > 100 µM each time.
Consider `Nc1c(O)c2c(c(O)c1Cl)C(=O)C=CC2=O`, for which the TGI in test [1] was determined as 4.64 µM; in test [2], 3.16 µM; in test [3], 21 µM; in test [4], 32.2 µM.
In the case of `CN(O)C(=O)c1ccc(OCc2cccc(Cl)c2)cc1`, the TGI was > 100 µM in test [1], > 100 µM in test [2], > 100 µM in test [3] and > 92.6 µM in test [4].
Turning to `COc1ccc(-c2c(C#N)c(N)n(C3OCC(O)C(O)C3O)c(=S)c2C#N)cc1` (centres undefined), the TGI in test [1], in test [2], in test [3] and in test [4] was > 100 µM throughout.
With `CCOC(=O)CCN1C(=O)c2ccc(NC(=O)C(=O)O)cc2S1(=O)=O`, the TGI in test [1], in test [2] and in test [4] was > 100 µM each time.
Consider `COc1ccccc1-c1n[nH]c(-c2ccccc2O)n1`, for which the TGI in test [1], in test [2], in test [3] and in test [4] was > 100 µM in each case.
In the case of `O=C1CCCSCCCC(=O)CCCSCCC1`, the TGI in test [1] and in test [2] was > 100 µM each time.
For `CCCC[P+](CCCC)(CCCC)C(C(=O)OC)C(C(=O)OC)=C1SC(C(=O)OC)=C(C(=O)OC)S1` (centres undefined), the TGI in test [1], in test [2] and in test [3] was > 100 µM each time.
With `CC[C@@]1(O)C(=O)OCc2c1cc1n(c2=O)Cc2c-1nc1ccccc1c2C=Nc1ccc(N[C@@H]2c3cc4c(cc3[C@@H](c3cc(OC)c(O)c(OC)c3)[C@H]3C(=O)OC[C@@H]32)OCO4)cc1`, in test [2], the GI50 is 0.295 µM and 0.188 µM; the TGI is 12.5 µM and > 100 µM. For the same molecule, in test [3], the GI50 is 0.127 µM and 0.0526 µM; the TGI is 2.25 µM and 0.546 µM.
As to `COc1ccc(OC)c2sc(N3C(=O)/C(=C/c4ccc(N(C)C)cc4)N=C3c3ccccc3)nc12`, the TGI in test [1], in test [2] and in test [4] was > 100 µM in each case.
With `N#Cc1cccc(Nc2ccccc2SSc2ccccc2Nc2cccc(C#N)c2)c1`, the results for the TGI in test [1] and in test [2] were 12.8 µM and 18.2 µM, respectively.
Regarding `COC(=O)C(Cc1c[nH]c2ccccc12)NC(=O)C(Cc1c[nH]c2ccccc12)NC(=O)C(Cc1c[nH]c2ccccc12)NC(=O)C(Cc1c[nH]c2ccccc12)NC(=O)C(Cc1c[nH]c2ccccc12)NC(=O)OC(C)(C)C` (centres undefined) (Boc-WWWWW-OMe; configuration not given here), the TGI in test [1], in test [2] and in test [4] was > 100 µM in each case.
As to `Nc1ccc2c(c1)N(C(=O)CCCC(=O)N1CC(CCl)c3ccc(N)cc31)CC2CCl` (centres undefined), the values for the TGI in test [1], in test [2] and in test [3] were > 50 µM, 3.17 µM and 0.582 µM, respectively.
